Columns and labels:
[1] = system: control sera (pooled serum of ten healthy LUMC hospital workers; commercial negative donor pooled serum from the Dutch bloodbank); format: binding, human; set-up: Binding of Control serum LUMC to linear peptides / Binding of Control serum Blood-bank to linear peptides / Binding of Control serum LUMC to looped peptides / Binding of Control Serum Blood-Bank to Looped peptides / Binding of Control serum LUMC to linear peptides of the protein M of SARS-CoV Urbani / Binding of Control serum Blood-bank to linear peptides of the protein M of SARS-CoV Urbani / Binding of Control serum LUMC to looped peptides of the protein M of SARS-CoV Urbani / Binding of Control Serum Blood-Bank to Looped peptides of the protein M of SARS-CoV Urbani: unit not given here
[2] = system: recombinant human anti-SARS-CoV antibody 03-018; format: binding; set-up: Binding of antibody 03-018 to linear peptides of the N protein of SARS-CoV Urbani / Binding of antibody 03-018 to looped/cyclic peptides of the N protein of SARS-CoV Urbani: unit not given here
[3] = system: rabbit serum obtained by immunizing a rabbit with the SARS-CoV strain Frankfurt 1; format: binding; set-up: Binding of a rabbit serum to linear peptides / Binding of a rabbit serum to looped peptides / Rabbit serum linear peptides / Rabbit serum looped peptides / Binding of a rabbit serum to linear peptides of protein N of SARS-CoV Urbani (Rabbit serum linear peptides) / Binding of a rabbit serum to looped/cyclic peptides of protein N of SARS-CoV Urbani (Rabbit serum looped peptides): unit not given here
[4] = system: antibodies in sera from SARS patients (sera 1a, 1b, 2, 6, 37, 62, London, SARS-yellow, SARS-green); format: binding, human; set-up: Binding of serum 6 to linear peptides of protein X1 of SARS-CoV Urbani / Binding of serum 37 to linear peptides of protein X1 of SARS-CoV Urbani / Binding of serum 6 to looped/cyclic peptide (PEPSCAN-ELISA) / Binding of serum 37 to looped/cyclic peptide (PEPSCAN-ELISA) / Binding of serum 37 to looped/cyclic peptides of protein X1 of SARS-CoV Urbani / Binding of serum 6 to linear peptides of protein X2 / Binding of serum 37 to linear peptides of protein X2 / Binding of serum 37 to looped/cyclic peptides of protein X2 of SARS-CoV Urbani / Binding of serum 6 to linear peptides of protein M of SARS-CoV Urbani / Binding of serum 37 to linear peptides of protein M of SARS-CoV Urbani / Binding of serum 6 to looped/cyclic peptides of protein M of SARS-CoV Urbani / Binding of serum 37 to looped/cyclic peptides of protein M of SARS-CoV Urbani / Binding of serum 6 to linear peptides of protein X3 of SARS-CoV Urbani / Binding of serum 37 to linear peptides of protein X3 of SARS-CoV Urbani / Binding of serum 37 to looped/cyclic peptides of protein X3 of SARS-CoV Urbani / Binding of serum 6 to linear peptides of protein X4 of SARS-CoV Urbani / Binding of serum 37 to linear peptides of protein X4 of SARS-CoV Urbani / Binding of serum 37 to looped/cyclic peptides of protein X4 of SARS-CoV Urbani / Binding of serum 6 to linear peptides of protein X5 of SARS-CoV Urbani / Binding of serum 37 to linear peptides of protein X5 of SARS-CoV Urbani / Binding of serum 37 to looped/cyclic peptides of protein X5 of SARS-CoV Urbani / Binding of serum 6 to linear peptides of protein N of SARS-CoV Urbani / Binding of serum 37 to linear peptides of protein N of SARS-CoV Urbani / Binding of serum 6 to linear peptide (PEPSCAN-ELISA) / Binding of serum 1a to looped/cyclic peptides of protein N of SARS-CoV Urbani / Binding of serum 1b to looped/cyclic peptides of protein N of SARS-CoV Urbani / Binding of serum 2 to looped/cyclic peptides of protein N of SARS-CoV Urbani / Binding of serum 6 to looped/cyclic peptides of protein N of SARS-CoV Urbani / Binding of serum 37 to looped/cyclic peptides of protein N of SARS-CoV Urbani / Binding of serum 62 to looped/cyclic peptides of protein N of SARS-CoV Urbani / Binding of serum London to looped/cyclic peptides of protein N of SARS-CoV Urbani / Binding of serum SARS-green to looped/cyclic peptides of protein N of SARS-CoV Urbani: unit not given here

VSGKGQQQQGQTVTK
Binding of Control Serum Blood-Bank to Looped peptides [1]: 0.7 | Binding of Control serum Blood-bank to linear peptides [1]: 1.0 | Binding of Control serum LUMC to linear peptides [1]: 1.4 | Binding of Control serum LUMC to looped peptides [1]: 0.9 | Binding of antibody 03-018 to linear peptides of the N protein of SARS-CoV Urbani [2]: 0.1 | Binding of antibody 03-018 to looped/cyclic peptides of the N protein of SARS-CoV Urbani [2]: 0.3 | Binding of a rabbit serum to linear peptides of protein N of SARS-CoV Urbani (Rabbit serum linear peptides) [3]: 0.2 | Binding of a rabbit serum to looped/cyclic peptides of protein N of SARS-CoV Urbani (Rabbit serum looped peptides) [3]: 0.4 | Binding of serum 1a to linear peptide (PEPSCAN-ELISA) [4]: 1.2 | Binding of serum 1a to looped/cyclic peptides of protein N of SARS-CoV Urbani [4]: 0.9 | Binding of serum 1b to linear peptide (PEPSCAN-ELISA) [4]: 0.6 | Binding of serum 1b to looped/cyclic peptides of protein N of SARS-CoV Urbani [4]: 0.3 | Binding of serum 2 to linear peptide (PEPSCAN-ELISA) [4]: 0.6 | Binding of serum 2 to looped/cyclic peptides of protein N of SARS-CoV Urbani [4]: 0.5 | Binding of serum 6 to linear peptide (PEPSCAN-ELISA) [4]: 0.4 | Binding of serum 6 to looped/cyclic peptides of protein N of SARS-CoV Urbani [4]: 0.3 | Binding of serum 37 to linear peptide (PEPSCAN-ELISA) [4]: 0.9 | Binding of serum 37 to looped/cyclic peptides of protein N of SARS-CoV Urbani [4]: 0.5 | Binding of serum 62 to linear peptide (PEPSCAN-ELISA) [4]: 1.2 | Binding of serum 62 to looped/cyclic peptides of protein N of SARS-CoV Urbani [4]: 0.5 | Binding of serum London to linear peptide (PEPSCAN-ELISA) [4]: 0.6 | Binding of serum London to looped/cyclic peptides of protein N of SARS-CoV Urbani [4]: 0.5 | Binding of serum SARS-green to linear peptide (PEPSCAN-ELISA) [4]: 0.5 | Binding of serum SARS-green to looped/cyclic peptides of protein N of SARS-CoV Urbani [4]: 0.5 | Binding of serum SARS-yellow to linear peptide (PEPSCAN-ELISA) [4]: 1.0 | Binding of serum SARS-yellow to looped/cyclic peptides of protein N of SARS-CoV Urbani [4]: 0.6

RVRGGDGKMKELSPR
Binding of Control Serum Blood-Bank to Looped peptides [1]: 0.7 | Binding of Control serum Blood-bank to linear peptides [1]: 0.8 | Binding of Control serum LUMC to linear peptides [1]: 0.9 | Binding of Control serum LUMC to looped peptides [1]: 0.7 | Binding of antibody 03-018 to linear peptides of the N protein of SARS-CoV Urbani [2]: 0.1 | Binding of antibody 03-018 to looped/cyclic peptides of the N protein of SARS-CoV Urbani [2]: 0.2 | Binding of a rabbit serum to linear peptides of protein N of SARS-CoV Urbani (Rabbit serum linear peptides) [3]: 0.2 | Binding of a rabbit serum to looped/cyclic peptides of protein N of SARS-CoV Urbani (Rabbit serum looped peptides) [3]: 0.6 | Binding of serum 1a to linear peptides of protein N of SARS-CoV Urbani [4]: 0.3 | Binding of serum 1a to looped/cyclic peptides of protein N of SARS-CoV Urbani [4]: 0.3 | Binding of serum 1b to linear peptides of protein N of SARS-CoV Urbani [4]: 0.2 | Binding of serum 1b to looped/cyclic peptides of protein N of SARS-CoV Urbani [4]: 0.2 | Binding of serum 2 to linear peptides of protein N of SARS-CoV Urbani [4]: 0.3 | Binding of serum 2 to looped/cyclic peptides of protein N of SARS-CoV Urbani [4]: 0.4 | Binding of serum 6 to linear peptides of protein N of SARS-CoV Urbani [4]: 0.2 | Binding of serum 6 to looped/cyclic peptides of protein N of SARS-CoV Urbani [4]: 0.4 | Binding of serum 37 to linear peptides of protein N of SARS-CoV Urbani [4]: 0.7 | Binding of serum 37 to looped/cyclic peptides of protein N of SARS-CoV Urbani [4]: 0.6 | Binding of serum 62 to linear peptides of protein N of SARS-CoV Urbani [4]: 0.8 | Binding of serum 62 to looped/cyclic peptides of protein N of SARS-CoV Urbani [4]: 0.5 | Binding of serum London to linear peptides of protein N of SARS-CoV Urbani [4]: 0.5 | Binding of serum London to looped/cyclic peptides of protein N of SARS-CoV Urbani [4]: 0.4 | Binding of serum SARS-green to linear peptides of protein N of SARS-CoV Urbani [4]: 0.6 | Binding of serum SARS-green to looped/cyclic peptides of protein N of SARS-CoV Urbani [4]: 0.1 | Binding of serum SARS-yellow to linear peptides of protein N of SARS-CoV Urbani [4]: 0.7 | Binding of serum SARS-yellow to looped/cyclic peptides of protein N of SARS-CoV Urbani [4]: 0.6

WFTALTQHGKEELRF
Binding of Control Serum Blood-Bank to Looped peptides [1]: 0.6 | Binding of Control serum Blood-bank to linear peptides [1]: 0.8 | Binding of Control serum LUMC to linear peptides [1]: 0.7 | Binding of Control serum LUMC to looped peptides [1]: 0.5 | Binding of antibody 03-018 to linear peptides of the N protein of SARS-CoV Urbani [2]: 0.1 | Binding of antibody 03-018 to looped/cyclic peptides of the N protein of SARS-CoV Urbani [2]: 0.2 | Binding of a rabbit serum to linear peptides of protein N of SARS-CoV Urbani (Rabbit serum linear peptides) [3]: 0.1 | Binding of a rabbit serum to looped/cyclic peptides of protein N of SARS-CoV Urbani (Rabbit serum looped peptides) [3]: 0.3 | Binding of serum 1a to linear peptides of protein N of SARS-CoV Urbani [4]: 0.3 | Binding of serum 1a to looped/cyclic peptides of protein N of SARS-CoV Urbani [4]: 0.4 | Binding of serum 1b to linear peptides of protein N of SARS-CoV Urbani [4]: 0.2 | Binding of serum 1b to looped/cyclic peptides of protein N of SARS-CoV Urbani [4]: 0.2 | Binding of serum 2 to linear peptides of protein N of SARS-CoV Urbani [4]: 0.3 | Binding of serum 2 to looped/cyclic peptides of protein N of SARS-CoV Urbani [4]: 0.4 | Binding of serum 6 to linear peptides of protein N of SARS-CoV Urbani [4]: 0.2 | Binding of serum 6 to looped/cyclic peptides of protein N of SARS-CoV Urbani [4]: 0.2 | Binding of serum 37 to linear peptides of protein N of SARS-CoV Urbani [4]: 1.2 | Binding of serum 37 to looped/cyclic peptides of protein N of SARS-CoV Urbani [4]: 0.8 | Binding of serum 62 to linear peptides of protein N of SARS-CoV Urbani [4]: 0.9 | Binding of serum 62 to looped/cyclic peptides of protein N of SARS-CoV Urbani [4]: 0.6 | Binding of serum London to linear peptides of protein N of SARS-CoV Urbani [4]: 0.7 | Binding of serum London to looped/cyclic peptides of protein N of SARS-CoV Urbani [4]: 0.4 | Binding of serum SARS-green to linear peptides of protein N of SARS-CoV Urbani [4]: 0.4 | Binding of serum SARS-green to looped/cyclic peptides of protein N of SARS-CoV Urbani [4]: 0.5 | Binding of serum SARS-yellow to linear peptides of protein N of SARS-CoV Urbani [4]: 0.5 | Binding of serum SARS-yellow to looped/cyclic peptides of protein N of SARS-CoV Urbani [4]: 0.4

ASAFFGMSRIGMEVT
Control Serum Blood-Bank Looped peptides [1]: 0.5 | Control serum Blood-bank linear peptides [1]: 0.7 | Control serum LUMC linear peptides [1]: 0.7 | Control serum LUMC looped peptides [1]: 0.4 | Binding of antibody 03-018 to linear peptides of the N protein of SARS-CoV Urbani [2]: 0.1 | Binding of antibody 03-018 to looped/cyclic peptides of the N protein of SARS-CoV Urbani [2]: 0.2 | Binding of a rabbit serum to linear peptides of protein N of SARS-CoV Urbani (Rabbit serum linear peptides) [3]: 0.1 | Binding of a rabbit serum to looped/cyclic peptides of protein N of SARS-CoV Urbani (Rabbit serum looped peptides) [3]: 0.5 | Binding of serum 1a to linear peptides of protein N of SARS-CoV Urbani [4]: 0.2 | Binding of serum 1a to looped/cyclic peptides of protein N of SARS-CoV Urbani [4]: 0.3 | Binding of serum 1b to linear peptides of protein N of SARS-CoV Urbani [4]: 0.3 | Binding of serum 1b to looped/cyclic peptides of protein N of SARS-CoV Urbani [4]: 0.2 | Binding of serum 2 to linear peptides of protein N of SARS-CoV Urbani [4]: 0.2 | Binding of serum 2 to looped/cyclic peptides of protein N of SARS-CoV Urbani [4]: 0.3 | Binding of serum 6 to linear peptides of protein N of SARS-CoV Urbani [4]: 0.2 | Binding of serum 6 to looped/cyclic peptides of protein N of SARS-CoV Urbani [4]: 0.1 | Binding of serum 37 to linear peptides of protein N of SARS-CoV Urbani [4]: 0.7 | Binding of serum 37 to looped/cyclic peptides of protein N of SARS-CoV Urbani [4]: 0.5 | Binding of serum 62 to linear peptides of protein N of SARS-CoV Urbani [4]: 0.7 | Binding of serum 62 to looped/cyclic peptides of protein N of SARS-CoV Urbani [4]: 0.4 | Binding of serum London to linear peptides of protein N of SARS-CoV Urbani [4]: 0.8 | Binding of serum London to looped/cyclic peptides of protein N of SARS-CoV Urbani [4]: 0.3 | Binding of serum SARS-green to linear peptides of protein N of SARS-CoV Urbani [4]: 0.3 | Binding of serum SARS-green to looped/cyclic peptides of protein N of SARS-CoV Urbani [4]: 0.3 | Binding of serum SARS-yellow to linear peptides of protein N of SARS-CoV Urbani [4]: 0.7 | Binding of serum SARS-yellow to looped/cyclic peptides of protein N of SARS-CoV Urbani [4]: 0.6
